Test results reported in patent US7514408B1, “β-secretase enzyme compositions and methods” (Elan Pharmaceuticals, Inc., priority 1999, dated 2009).
Numbered stars: 1 amine (or outer) side, 2 acyl side, 3 side chain; on linkers, the order of the positions; unused ones are H or OH. Square brackets hold non-standard residues; d marks the D form. Peptide text beside a SMILES is read from it. Sta = CC(C)C[C@H](N)[C@@H](O)CC(=O)O; X1 = CC(C)CC(N[*:1])C(O)C(=O)[*:2]

Biological target: β-secretase (Homo sapiens, UniProt P56817)
Experiment: MBP C125 assay of peptide inhibitors
Format: biochemical
Description: The substrates for these studies were synthesized using solid support sequential synthesis as described in Example 7. Assays of the inhibitory activity were performed in the MBP C125 assays described in Example 4 and IC50 values were generated for the heptameric inhibitors are reported in Table 9. Preferred inhibitors of the invention are those compounds in Group III, particularly preferred inhibitors are in Group II and the most preferred are the inhibitors of Group I.
MBP-C125 Assay: Two recombinantly-expressed proteins (FIG. 19 and FIG. 20) were used as substrates for β-secretase. The preferred substrate (FIG. 19) was expressed in E. coli as a fusion protein of the last 125 amino acids of APP fused to the carboxy-terminal end of maltose-binding protein (MBP), using commercially available vectors from New England Biolabs. […]
Recombinant proteins were generated with both the wild-type APP sequence (MBP-C125 WT) at the cleavage site ( . . . Val-Lys-Met-Asp-Ala . . . ). […] This amino-terminal fragment can be recognized on Western blots with the same Ab, or, quantitatively, using an anti-MBP capture-biotinylated SW-192 reporter sandwich format, as shown in FIG. 19. […]
Microtiter 96-well plates were coated with purified anti-MBP antibody (@ 5-μg/ml), followed by blocking with human serum albumin. […] Plates were read in a Cytofluor 2350 Fluorescent Measurement System. […]

Chain of β-secretase (P56817 46-501): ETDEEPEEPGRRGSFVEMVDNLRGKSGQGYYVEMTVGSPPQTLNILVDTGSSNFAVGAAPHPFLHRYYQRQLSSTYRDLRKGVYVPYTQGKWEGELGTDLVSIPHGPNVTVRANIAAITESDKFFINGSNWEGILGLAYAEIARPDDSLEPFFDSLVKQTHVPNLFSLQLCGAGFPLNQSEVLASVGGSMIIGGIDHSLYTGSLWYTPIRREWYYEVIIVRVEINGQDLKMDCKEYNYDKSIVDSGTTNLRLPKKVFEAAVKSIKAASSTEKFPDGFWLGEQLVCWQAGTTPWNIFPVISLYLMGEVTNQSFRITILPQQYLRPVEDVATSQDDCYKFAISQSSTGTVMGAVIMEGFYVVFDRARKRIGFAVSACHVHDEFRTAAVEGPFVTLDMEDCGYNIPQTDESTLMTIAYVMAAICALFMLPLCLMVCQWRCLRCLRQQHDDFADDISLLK

Compound | IC50 (MBP C125 assay, heptamer peptides, read-out: IC50 Group) | inhibitor potency relative to the valine substitution alone (fold more potent than P1' valine substituted peptide)
CSCC[C@H](NC(=O)[C@@H](NC(C)=O)C(C)C)C(=O)NC(CC(C)C)C(O)C(=O)N[C@H](C(=O)N[C@@H](C)C(=O)N[C@@H](CCC(=O)O)C(=O)N[C@@H](Cc1ccccc1)C(=O)O)C(C)C (some centres unmarked) [Example 7P] (Ac-VM[X1]VAEF-OH) | 1 to 10 µM | 
NH2-KTEEISEVNVAEF-COOH (H-KTEEISEVN[Sta]VAEF-OH) [P10-P4′sta D→V] |  | about 100 times
